Legend:
CCRF-CEM = assay: Cytotoxic MTS assay, CCRF-CEM; assay type: cell-based; settings: Homo sapiens, 72 h, T-lymphoblastic leukemia
Text: (§1) Cytotoxic activity of all synthesized compounds was investigated in vitro against eight human cancer cell lines and two non-tumor fibroblasts using the standard MTS test (Table 1). The cancer cell lines were derived from T-lymphoblastic leukemia CCRF-CEM, leukemia K562 and their multiresistant counterparts expressing P-glycoprotein, MRP1 and LRP proteins (CEM-DNR, K562-TAX), solid tumors including lung (A549) and colon (HCT116, HCT116p53-/-) carcinomas, osteosarcoma cell line (U2OS), and for comparison, tests were performed on two human non-cancer fibroblast cell lines (BJ, MRC-5).
(§2) Biological assays were performed in concordance with our previous publications [[29], [58]; [60]; [61]]. All cells (if not indicated otherwise) were purchased from the American Tissue Culture Collection (ATCC). The CCRF-CEM line is derived from T lymphoblastic leukemia, evincing high chemosenzitivity, K562 represent cells from an acute myeloid leukemia patient sample with bcr-abl translocation, U2OS line is derived from osteosarcoma, HCT116 is colorectal tumor cell line and its p53 gene knock-down counterpart (HCT116p53-/-, Horizon Discovery Ltd, UK) is a model of human cancers with p53 mutation frequently associated with poor prognosis, A549 line is lung adenocarcinoma. The daunorubicin resistant subline of CCRF-CEM cells (CEM-DNR bulk) and paclitaxel resistant subline K562-TAX were selected in our laboratory by the cultivation of maternal cell lines in increasing concentrations of daunorubicine or paclitaxel, respectively. The CEM-DNR bulk cells overexpress MRP-1 and P-glycoprotein protein, while K562-TAX cells overexpress P-glycoprotein only. Both proteins belong to the family of ABC transporters and are involved in the primary and/or acquired multidrug resistance phenomenon. MRC-5 and BJ cell lines were used as a non-tumor control and represent human fibroblasts. The cells were maintained in nunc/corning 80 cm^2 plastic tissue culture flasks and cultured in cell culture medium according to ATCC or Horizon recommendations (DMEM/RPMI 1640 with 5 g/L glucose, 2 mM glutamine, 100 U/mL penicillin, […] streptomycin, 10% fetal calf serum, and NaHCO3).
(§3) MTS assay was performed at Institute of Molecular and Translational Medicine by robotic platform (HighResBiosolutions). Cell suspensions were prepared and diluted according to the particular cell type and the expected target cell density (25000–35000 cells/mL based on cell growth characteristics). Cells were added by automatic pipetor (30 μL) into 384 well microtiter plates. All tested compounds were dissolved in 100% DMSO and four-fold dilutions of the intended test concentration were added in 0.15 μL aliquots at time zero to the microtiter plate wells by the echoacustic non-contact liquid handler Echo550 (Labcyte). The experiments were performed in technical duplicates and three biological replicates at least. The cells were incubated with the tested compounds for 72 h at 37°C, in a 5% CO2 atmosphere at 100% humidity. At the end of the incubation period, the cells were assayed by using the MTS test. Aliquots (5 μL) of the MTS stock solution were pipetted into each well and incubated for additional 1–4 h. After this incubation period, the optical density (OD) was measured at 490 nm with an Envision reader (Perkin Elmer). Tumor cell survival (TCS) was calculated by using the following equation: TCS = (ODdrug-exposed well/mean ODcontrol wells) × 100%. The IC50 value, the drug concentration that is lethal to 50% of the tumor cells, was calculated from the appropriate dose-response curves in Dotmatics software.

CEM-DNR = assay: Cytotoxic MTS assay, CEM-DNR; assay type: cell-based; settings: Homo sapiens, 72 h, daunorubicin resistant subline of CCRF-CEM
Text: as §1, §2, §3

K562 = assay: Cytotoxic MTS assay, K562; assay type: cell-based; settings: Homo sapiens, 72 h, leukemia
Text: as §1, §2, §3

K562-TAX = assay: Cytotoxic MTS assay, K562-TAX; assay type: cell-based; settings: Homo sapiens, 72 h, paclitaxel resistant subline of K562
Text: as §1, §2, §3

A549 = assay: Cytotoxic MTS assay, A549; assay type: cell-based; settings: Homo sapiens, 72 h, lung adenocarcinoma
Text: as §1, §2, §3

HCT116 = assay: Cytotoxic MTS assay, HCT116; assay type: cell-based; settings: Homo sapiens, HCT-116, 72 h, colorectal tumor
Text: as §1, §2, §3

HCT116p53-/- = assay: Cytotoxic MTS assay, HCT116p53-/-; assay type: cell-based; settings: Homo sapiens, 72 h, p53 knock-down colorectal tumor
Text: as §1, §2, §3

U2OS = assay: Cytotoxic MTS assay, U2OS; assay type: cell-based; settings: Homo sapiens, 72 h, osteosarcoma
Text: as §1, §2, §3

BJ = assay: Cytotoxic MTS assay, BJ fibroblasts; assay type: cell-based; settings: Homo sapiens, 72 h, non-tumor fibroblasts
Text: as §1, §2, §3

MRC-5 = assay: Cytotoxic MTS assay, MRC-5 fibroblasts; assay type: cell-based; settings: Homo sapiens, MRC5, 72 h, non-tumor fibroblasts
Text: as §1, §2, §3

CCRF-CEM cells [1] = assay: Cell cycle and apoptosis analysis (propidium iodide flow cytometry); assay type: cell-based, human
Method: (§4) Together with the treated cells, control sample containing vehicle was harvested at the same time point after 24 h. After another 24 hours, cells were then washed with cold PBS and fixed in 70% ethanol added dropwise and stored overnight at -20°C. Afterwards, cells were washed in hypotonic citrate buffer, treated with RNAse (50 μg/mL) and stained with propidium iodide. Flow cytometer using a 488 nm single beam laser (Becton Dickinson) was used for measurement. Cell cycle was analyzed in the program ModFitLT (Verity), and apoptosis was measured in logarithmic model expressing percentage of the particles with propidium content lower than cells in G0/G1 phase (<G1) of the cell cycle. Half of the sample was used for pH3^Ser10 antibody (Sigma) labeling and subsequent flow cytometry analysis of mitotic cells.

CCRF-CEM cells [2] = assay: pH3Ser10 antibody labeling, flow cytometry of mitotic cells; assay type: cell-based, human
Method: as §4

CCRF-CEM cells [3] = assay: BrDU incorporation analysis (DNA synthesis); assay type: cell-based, human; set-up: DNA synthesis: unit not given here
Method: as §4
For this analysis, the same procedure of cultivation as previously was used. Before harvesting, 10 μM 5-bromo-2-deoxyuridine (BrDU), was added to the cells for puls-labeling for 30 min. Cells were fixed with ice-cold 70% ethanol and stored overnight. Before the analysis, cellswere washed with PBS, and resuspended in 2 M HCl for 30 min at room temperature to denature their DNA. Following neutralization with 0.1 M Na2B4O7 (Borax), cells were washed with PBS containing 0.5% Tween-20 and 1% BSA. Staining with primary anti-BrDU antibody (Exbio) for 30 min at room temperature in the dark followed. Cells were than washed with PBS and stained with secondary antimouse-FITC antibody (Sigma). Cells were then washed with PBS again and incubated with propidium iodide (0.1 mg/mL) and RNAse A (0.5 mg/mL) for 1 h at room temperature in the dark and afterwards analyzed by flow cytometry using a 488 nm single beam laser (FACSCalibur, Becton Dickinson).

CCRF-CEM cells [4] = assay: BrU incorporation analysis (RNA synthesis); assay type: cell-based, human; set-up: RNA synthesis: unit not given here
Method: as §4
Cells were cultured and treated as above. Before harvesting, pulse-labeling with 1 mM 5-bromouridine (BrU) for 30 min followed. The cells were then fixed in 1% buffered paraformaldehyde with 0.05% of NP-40 in room temperature for 15 min, and then stored in 4°C overnight. Before measurement, they werewashed in PBS with 1% glycin, washed in PBS again, and stained by primary anti-BrDU antibody crossreacting to BrU (Exbio) for 30 min at room temperature in the dark. After another washing step in PBS cells were stained by secondary antimouse-FITC antibody (Sigma). Following the staining, cells were washed with PBS and fixed with 1% PBS buffered paraformaldehyde with 0.05% of NP-40 for 1 hour. Cells were washed by PBS, incubated with propidium iodide (0.1 mg/mL) and RNAse A (0.5 mg/mL) for 1 h at room temperature in the dark, and finally analyzed by flow cytometry using a 488 nm single beam laser (FACS Calibur, Becton Dickinson).

Compound	IC50 (CCRF-CEM) [µM]	IC50 (CEM-DNR) [µM]	IC50 (K562) [µM]	IC50 (K562-TAX) [µM]	IC50 (A549) [µM]	IC50 (HCT116) [µM]	IC50 (HCT116p53-/-) [µM]	IC50 (U2OS) [µM]	IC50 (BJ) [µM]	IC50 (MRC-5) [µM]	G0/G1 (%) (CCRF-CEM cells [1]; 1 × IC50)	G2/M (%) (CCRF-CEM cells [1]; 1 × IC50)	S (%) (CCRF-CEM cells [1]; 1 × IC50)	G0/G1 (%) (CCRF-CEM cells [1]; 5 × IC50)	G2/M (%) (CCRF-CEM cells [1]; 5 × IC50)	S (%) (CCRF-CEM cells [1]; 5 × IC50)	Sub G1 (%) (CCRF-CEM cells [1]; 5 × IC50)	pH3Ser10 (%) (CCRF-CEM cells [2]; 1 × IC50)	pH3Ser10 (%) (CCRF-CEM cells [2]; 5 × IC50)	effect on DNA synthesis (in words) (CCRF-CEM cells [3])	other results
C=C(CN=[N+]=[N-])[C@@H]1CC[C@]2(C(=O)O)CC[C@]3(C)C(CCC4[C@@]5(C)CC[C@H](OC(C)=O)C(C)(C)C5CC[C@]43C)C12 (stereo partly drawn) [Compound 6, 3β-O-Acetyl-30-azidobetulinic acid]	7.4	19.2	12.3	15.5	17.6	18.6	19.7	20.9	26.7	20	49.3	20.3	30.4	41.4	23.8	34.8	70.0	1.80	2.68	inhibiting	Sub G1 (%) (CCRF-CEM cells [1]; 1 × IC50): 10.7%; DNA synthesis (CCRF-CEM cells [3]; 1 × IC50, BrDU incorporation): 33.0; DNA synthesis (CCRF-CEM cells [3]; 5 × IC50, BrDU incorporation): 1.00; effect on RNA synthesis (in words) (CCRF-CEM cells [4]): inhibiting; RNA synthesis (CCRF-CEM cells [4]; 1 × IC50, BrU incorporation): 14.1; RNA synthesis (CCRF-CEM cells [4]; 5 × IC50, BrU incorporation): 1.70
C=C(Cn1cc(-c2ccccc2C=O)nn1)[C@@H]1CC[C@]2(C(=O)O)CC[C@]3(C)C(CCC4[C@@]5(C)CC[C@H](O)C(C)(C)C5CC[C@]43C)C12 (stereo partly shown) [Compound 11b]	8.5	11.5	> 50	13.7	> 50	26.3	26.9	> 50	> 50	> 50	59.0	15.7	25.3	45.5	19.1	35.4	65.6	0.88	1.19	inhibiting	DNA synthesis (CCRF-CEM cells [3]; 1 × IC50, BrDU incorporation): 20.0; DNA synthesis (CCRF-CEM cells [3]; 5 × IC50, BrDU incorporation): 6.40; effect on RNA synthesis (in words) (CCRF-CEM cells [4]): inhibiting; RNA synthesis (CCRF-CEM cells [4]; 1 × IC50, BrU incorporation): 48.3; RNA synthesis (CCRF-CEM cells [4]; 5 × IC50, BrU incorporation): 38.1
C=C(CBr)[C@@H]1CC[C@]2(C(=O)O)CC[C@]3(C)C(CCC4[C@@]5(C)CC[C@H](OC(C)=O)C(C)(C)C5CC[C@]43C)C12 (stereo partly drawn) [Compound 4, 3β-O-Acetyl-30-bromobetulinic acid]	5.7	15.3	21.7	15.8	13.2	15.9	14.1	21.2	31.7	24.2	47.3	16.8	35.9	33.7	23.2	43.0	39.7	1.34	2.35	inhibiting	Sub G1 (%) (CCRF-CEM cells [1]; 1 × IC50): 9.4%; DNA synthesis (CCRF-CEM cells [3]; 1 × IC50, BrDU incorporation): 38.6; DNA synthesis (CCRF-CEM cells [3]; 5 × IC50, BrDU incorporation): 5.80; effect on RNA synthesis (in words) (CCRF-CEM cells [4]): inhibiting; RNA synthesis (CCRF-CEM cells [4]; 1 × IC50, BrU incorporation): 56.3; RNA synthesis (CCRF-CEM cells [4]; 5 × IC50, BrU incorporation): 24.8
C=C(Cn1cc(-c2ccccn2)nn1)[C@@H]1CC[C@]2(C(=O)O)CC[C@]3(C)C(CCC4[C@@]5(C)CC[C@H](OC(C)=O)C(C)(C)C5CC[C@]43C)C12 (stereo partly shown) [Compound 9c]	9	14.4	22.1	13.8	13.2	30.3	13.7	16	29.5	27.6	48.9	20.3	30.9	40.5	21.0	38.5	65.6	1.47	0.89	inhibiting	Sub G1 (%) (CCRF-CEM cells [1]; 1 × IC50): 7.2%; DNA synthesis (CCRF-CEM cells [3]; 1 × IC50, BrDU incorporation): 20.3; DNA synthesis (CCRF-CEM cells [3]; 5 × IC50, BrDU incorporation): 2.90; effect on RNA synthesis (in words) (CCRF-CEM cells [4]): inhibiting; RNA synthesis (CCRF-CEM cells [4]; 1 × IC50, BrU incorporation): 25.4; RNA synthesis (CCRF-CEM cells [4]; 5 × IC50, BrU incorporation): 0.40
C=C(Cn1cc(-c2ccccc2C=O)nn1)[C@@H]1CC[C@]2(C(=O)O)CC[C@]3(C)C(CCC4[C@@]5(C)CC[C@H](OC(C)=O)C(C)(C)C5CC[C@]43C)C12 (stereo partly shown) [Compound 9b]	3.3	4	3.6	3.9	14.8	6.4	9.5	12.8	31.3	28.9	58.6	19.5	21.9	35.7	18.1	46.2	51.9	1.19	0.37	inhibiting	inhibition of the cell cycle in G0/G1 (in words) (CCRF-CEM cells [1]): highest accumulation; Sub G1 (%) (CCRF-CEM cells [1]; 1 × IC50): 10.8%; DNA synthesis (CCRF-CEM cells [3]; 1 × IC50, BrDU incorporation): 22.6; DNA synthesis (CCRF-CEM cells [3]; 5 × IC50, BrDU incorporation): 0.55; effect on RNA synthesis (in words) (CCRF-CEM cells [4]): inhibiting; RNA synthesis (CCRF-CEM cells [4]; 1 × IC50, BrU incorporation): 15.8; RNA synthesis (CCRF-CEM cells [4]; 5 × IC50, BrU incorporation): 0.08

— PMC5291411, “Cytotoxic conjugates of betulinic acid and substituted triazoles prepared by Huisgen Cycloaddition from 30-azidoderivatives” (PLoS ONE, 2017)
